From patent US9302993B2, “8-hydroxy quinoline derivatives” (PRANA BIOTECHNOLOGY LIMITED, priority 2002, dated 2016)
“And” between values parts separate entries of the source, which are not always exact repeats. Equal values may be shown once. Read-outs that look alike come from different tables or passages of the source.

Experiments:
[1] = test system: Neuronal cortical cells; experiment: Assay for test compound cytoxicity, MTS (Assay 3(d)); format: cell-based, mouse; conditions: BL6J×129sv, mouse, 4 days, 10 uM
Procedure: Media was then replaced with Neurobasal media (Invitrogen Life Technologies) and B27 supplements (Invitrogen Life Technologies). Cultures were maintained at 37° C. in 5% CO2. Prior to experimentation, the culture medium was replaced with Neurobasal media and B27 minus antioxidants (Invitrogen Life Technologies).
Cell viability is determined using the MTS assay. Culture medium is […] replaced with fresh neurobasal medium plus B27 supplements minus antioxidants. 1/10th volume MTS solution (Cell Titre 96 Aqueous One, Promega Corporation) and incubated at 37° C., 2 hrs. 200 microliter aliquots are measured with a spectrophotometer at 560 nm.
(d) Assay for Test Compound Cytoxicity
Neuronal cortical cells were cultured for five days as per Assay 2 in NB media and B27 supplement.
On day six the test compounds were added to the neuronal cell cultures in NB media and B27 supplement minus antioxidants.
Test compounds were dissolved in 100% DMSO to a concentration of 2.5 mM (10 mM if excess compound was weighed out per vial—then diluted to 2.5 mM). […] Test compounds were not added directly to cells, instead they were added to a 48 well ‘Drug Plate’ as comprised below:
The Drug Plate was incubated at 37° C. for 15 mins. 200 ul of each well was added in triplicate to the corresponding cell plate. The cell plate was incubated at 37 C, for 4 days.
On completion of the assay, 1/10 volume MTS was added per well of plate (ie 25 ul/250 ul). The plates were incubated at 37 C for 2 hrs, and then absorbance was read at 560 nm.

[2] = test system: Aβ in extract of tissue from post mortem human AD brain; experiment: Human brain amyloid solubilisation assay (Assay 9, BAS); format: biochemical
Procedure: Assay 9. Human Brain Amyloid Solubilisation Assay
This assay was performed in order to assess the ability of a test compound to mobilise Aβ from the insoluble to the soluble phase of an extract of tissue from post mortem human AD brain.
Up to 0.5 g of plaque-bearing cortex without meninges was homogenized using a DIAX 900 homogenizer (Heudolph and Co, Kelheim, Germany) or other suitable device for three 30-second periods at full speed in 2 ml of ice-cold phosphate-buffered saline, pH 7.4. To obtain the phosphate-buffered saline-extractable fraction, the homogenate was centrifuged at 100,000×g for 30 min and the supernatant removed. Alternatively, the tissue was freeze dried then pulverised to form a powder which was then weighed out into aliquots for extraction as above. Supernatant, either freeze-dried and resuspended or in unconcentrated form, was dissolved in 200 μl of Tris-Tricine sodium dodecyl sulfate (SDS) sample buffer pH 8.3 containing 8% SDS, 10% 2-mercaptoethanol. Aliquots (10 μl) were then boiled for 10 minutes before SDS-polyacrylamide gel electrophoresis. The insoluble fraction of the cortical samples was obtained by resuspending the initial pelleted sample in 1 ml of phosphate-buffered saline. A 50-μl aliquot of this suspension was then boiled in […] of sample buffer as above.
Tris-Tricine polyacrylamide gel electrophoresis was performed by loading appropriately diluted samples on to 10% to 20% gradient gels (Novex, San Diego, Calif.) followed by transfer on to 0.2-μm nitrocellulose membrane (Bio-Rad, Hercules, Calif.). Aβ was detected by using monoclonal antibody W02, which detects residues 5 through 8, […] (or another suitable antibody) in conjunction with horseradish peroxidase-conjugated rabbit anti-mouse IgG (Dako, Denmark), and visualized by using enhanced chemiluminescence (eg ECL; Amersham Life Science, Buckinghamshire, UK). Each gel included three lanes containing 0.5, 1, and 2 ng of synthetic Aβ40 (Keck Laboratory, Yale University, New Haven, Conn.) as reference standards.
Blot films were scanned by using a suitable imaging system such as the UVP gel documentation system, and densitometry performed using suitable software, eg UVP Labworks. The dynamic range of the film/scanner was determined by using a step tablet (No. 911ST600, Kodak, Rochester N.Y.), a calibrated film exposed by the manufacturer to provided steps of known increasing intensity. The quantifiable range of signal intensity for densitometric analysis of the mono- and dimeric Aβ bands was based on the comparison with a curve obtained by scanning and densitometry of the step tablet.
All samples were analysed at least twice, and gel loadings and dilutions were adjusted to fit within the quantifiable region of the standard curve. […] The insoluble Aβ being comprised of the pelletable fraction derived from the insoluble amyloid plaque from the above cortical samples and the soluble fraction comprising monomeric and/or oligomeric soluble Aβ.

[3] = molecular target: T1, hydrogen peroxide generation by Aβ in the presence of copper (Homo sapiens, UniProt P05067); experiment: Fluorometric H2O2 assay (Assay 1); format: biochemical; conditions: Aβ 1-42 with Cu-Gly, DCF/HRP, 37 C 60 min; several values in one cell = repeat determinations; read-out: Peroxide IC50
T1 construct: The reaction solutions contained Aβ 1-42 at concentrations in the range of 50 nM to 1 μM
T1 sequence (P05067 672-713 limits assumed): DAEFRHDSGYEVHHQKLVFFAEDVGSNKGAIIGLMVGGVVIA
Procedure: Assay 1. Fluorometric H2O2 Assay
A fluorometric assay was used to test the ability of a test compound to inhibit hydrogen peroxide generation by Aβ in the presence of copper based on dichlorofluoroscein diacetate (DCF; Molecular Probes, Eugene Oreg.). The DCF solution (5 mM) in 100% dimethyl sulphoxide (previously purged with argon for 2 hr at 20° C.) was deacetylated in the presence of 0.25M NaOH for 30 min and neutralised at pH 7.4 to a final concentration of 1 mM. Horseradish peroxidase (HRP) stock solution was prepared to 1 μM at pH 7.4. The reactions were carried out in PBS, pH 7.4 in a 96 well plate (total volume=250 μl/well). The reaction solutions contained Aβ 1-42 at concentrations in the range of 50 nM to 1 μM, copper-glycine chelate (Cu-Gly), was prepared by adding CuCl2 to glycine in the ratio of 1:6 and added to the Aβ in the proportion 2Cu-Gly: 1Aβ), reducing agents including dopamine (5 μM) or ascorbic acid, deacetylated DCF 100 μM, and HRP, 0.1 μM. […] The reaction mixture was incubated at 37 C for 60 min. […] H2O2 concentration may be established by comparing fluorescence with the H2O2 standards. Inhibition of AB H2O2 production was assayed by including a given concentration of test compound(s) in the test wells.

[4] = solubilising plaques relative to PBS

Row | Compound | Viable 10 uM [1] | BAS Score [2, 4] | IC50 [3] | BAS Score [2]
1 | O=S(=O)(O)c1cc(I)c(O)c2ncccc12 [compound 43] | 91.02 | − | 0.6 µM | 
2 | Nc1ccc(O)c2ncccc12 [compound 44] | 71.05 |  |  | +
3 | Oc1c(I)cc(I)c2cccnc12 [compound 46] | 91.97 | − | 1 µM | 
4 | Oc1ccc(Cl)c2cccnc12 [compound 48] | 85 | − | 0.8 µM | 
5 | Oc1c(-c2ccccc2)cc(Cl)c2cccnc12 [compound 808] | 71.89 |  | > 10 µM | 
6 | Oc1c(-c2ccccc2)cc(-c2ccccc2)c2cccnc12 [compound 809] | 26.31 | + | < 4 µM and 1.8 µM | 
7 | O=[N+]([O-])c1cccc(-c2cc(Cl)c3cccnc3c2O)c1 [compound 811] | 78.46 |  | > 10 µM | 
8 | Oc1c(-c2ccc(F)cc2)cc(Cl)c2cccnc12 [compound 812] | 75.36 |  | > 10 µM | 
9 | Oc1c(-c2cc(F)cc(F)c2)cc(Cl)c2cccnc12 [compound 813] | 66 |  | > 10 µM | 
10 | Oc1c(-c2ccccc2F)cc(Cl)c2cccnc12 [compound 815] | 53.68 |  | > 10 µM | 
11 | O=Cc1ccccc1-c1cc(Cl)c2cccnc2c1O [compound 849] | 98.83 |  | 4.5 µM | 
12 | Oc1c(-c2cccc(F)c2)cc(Cl)c2cccnc12 [compound 850] | 71.28 |  | > 10 µM | 
13 | CN(C)c1ccc(-c2cc(Cl)c3cccnc3c2O)cc1 [compound 851] |  | − | < 0.7 µM | 
14 | Cc1ccccc1-c1cc(-c2ccccc2C)c2cccnc2c1O [compound 852] | 33.52 | + |  | 
15 | Cc1cccc(-c2cc(Cl)c3cccnc3c2O)c1 [compound 859] |  | + |  | 
16 | Oc1c(I)cc(-c2ccccc2C(F)(F)F)c2cccnc12 [compound 860] |  | + |  | 
17 | Cc1ccccc1-c1cc(I)c(O)c2ncccc12 [compound 861] | 37.83 | + | 0.91 µM | 
18 | COc1ccccc1-c1cc(-c2ccccc2OC)c2cccnc2c1O [compound 862] |  | + |  | 
19 | COc1ccccc1-c1cc(I)c(O)c2ncccc12 [compound 863] | 34.97 | + |  | 
20 | Oc1c(I)cc(-c2ccccc2F)c2cccnc12 [compound 865] | 34.07 |  | > 10 µM | 
21 | O=C(O)CNC(=O)c1ccc2cccc(O)c2n1 [compound 956] | 89 |  | > 10 µM | 
22 | NCCNC(=O)c1ccc2cccc(O)c2n1 [compound 957] | 95.86 | + |  | 

Row | Compound | Viable 10 uM [1] | BAS Score [2, 4] | IC50 [3] | BAS Score [2]
23 | CC(=O)NCc1ccc2cccc(O)c2n1 [compound 967] | 90.69 |  | 7.8 µM | 
24 | Oc1c(-c2cc3ccccc3s2)cc(Cl)c2cccnc12 [compound 970] | 32.33 |  | 6.7 µM | 
25 | Oc1c(-c2cc(Cl)c3cccnc3c2O)cc(Cl)c2cccnc12 [compound 971] | 84.29 |  | > 10 µM | 
26 | Oc1c(-c2ccsc2)cc(Cl)c2cccnc12 [compound 972] | 30.59 |  | > 10 µM | 
27 | Oc1c(-c2ccc(F)cc2F)cc(Cl)c2cccnc12 [compound 973] | 42.38 |  | > 10 µM | 
28 | Oc1c(-c2ccccc2C(F)(F)F)cc(-c2ccccc2C(F)(F)F)c2cccnc12 [compound 974] |  | + | 0.6 µM | 
29 | Oc1c(-c2ccccc2F)cc(-c2ccccc2F)c2cccnc12 [compound 975] |  | + | 3.2 µM | 
30 | CC(=O)c1ccc2cccc(O)c2n1 [compound 976] |  | − | 3.7 µM | 
31 | O=C(CNC(=O)c1cc(O)c2cccc(O)c2n1)NCc1ccccn1 [compound 988] | 93.27 | − |  | 
32 | Oc1cccc2ccc(CNCc3ccccn3)nc12 [compound 991] |  | + |  | 
33 | O=C(O)CNC(=O)c1cc(O)c2cccc(O)c2n1 [compound 992] |  |  | > 10 µM | 
34 | Cc1nccn1-c1ccc2cccc(O)c2n1 [compound 993] |  |  | > 10 µM | 
35 | CCOC(=O)c1ccccc1-c1ccc2cccc(O)c2n1 [compound 1004] |  |  | > 10 µM and 6.6 µM | 
36 | O=C(NCc1nccs1)c1ccc2cccc(O)c2n1 [compound 1019] |  |  | > 10 µM | 
37 | COc1cccc2ccc(C(=O)NCCc3ccccn3)nc12 [compound 1022] |  |  | > 10 µM | 
38 | CC(=O)Nc1ccc(O)c2ncccc12 [compound 1028] |  |  | 0.32 µM | 
39 | Oc1ccc(F)c2cccnc12 [compound 1034] |  |  | 0.44 µM | 
40 | O=S(=O)(NCCc1c[nH]cn1)c1ccc2cccc(O)c2n1 [compound 1035] |  |  | > 10 µM | 
41 | Oc1cccc2cc3ccccc3nc12 [compound 1043] |  |  | 0.64 µM | 
42 | CNc1ccc2c(Cl)cc(Cl)c(O)c2n1 [compound 1047, 5,7-Dichloro-2-methylamino-8-hydroxyquinoline] |  |  | > 10 µM | 
43 | Nc1cnc2c(O)c(Cl)cc(Cl)c2c1 [compound 1060, 3-amino-5,7-dichloro-8-hydroxyquinoline] |  |  | 0.5 µM | 
